Laboratory results from patent US11180483B2, “Substituted reverse pyrimidine Bmi-1 inhibitors” (PTC Therapeutics, Inc., priority 2012, dated 2021).

System: Bmi-1
Test: Sandwich ELISA Assay (Bmi-1 ELISA) in HT-1080 cells
Assay type: cell-based
How it was run: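 Bmi-1 in lysates was measured by a three-antibody ELISA with TMB, OD450 minus OD570 reference, interpolated on a GST-tagged recombinant Bmi-1 standard curve, 0-8000 pg/mL. Lysates came from HT-1080 cells treated 40-48 h with compound, final DMSO 0.5%.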

| SMILES | EC50 |
| --- | --- |
| COc1ccc(Nc2ccnc(-c3c(C(F)(F)F)nc4ccccn34)n2)cc1F [Cpd 34, N-(3-fluoro-4-methoxyphenyl)-2-[2-(trifluoromethyl)imidazo[1,2-a]pyridin-3-yl]pyrimidin-4-amine] | 1 to 10 nM |
| Cc1ccc(Nc2nc(-n3c(C)nc4cc(C#N)ccc43)nc(N)c2F)cc1 [Cpd 227, 1-{4-amino-5-fluoro-6-[(4-methylphenyl)amino]pyrimidin-2-yl}-2-methyl-1H-benzimidazole-5-carbonitrile] | 10 to 100 nM |
| Cc1nc2c(F)cc(F)cc2n1-c1nc(N)c(F)c(Nc2ccc3c(c2)OCO3)n1 [Cpd 240, N-(1,3-benzodioxol-5-yl)-2-(4,6-difluoro-2-methyl-1H-benzimidazol-1-yl)-5-fluoropyrimidine-4,6-diamine] | 1 to 10 nM |
| Cc1nc2ncccc2n1-c1nc(N)cc(Nc2ccc(C(F)(F)F)cc2)n1 [Cpd 73, 2-(2-methyl-1H-imidazo[4,5-b]pyridin-1-yl)-N-[4-(trifluoromethyl)phenyl]pyrimidine-4,6-diamine] | 10 to 100 nM |
| Cc1nc2cc(F)c(F)cc2n1-c1nc(N)cc(Nc2ccc(OC(F)F)c(F)c2)n1 [Cpd 101, N-[4-(difluoromethoxy)-3-fluorophenyl]-2-(5,6-difluoro-2-methyl-1H-benzimidazol-1-yl)pyrimidine-4,6-diamine] | 10 to 100 nM |
| COc1ccc(Nc2nc(-n3c(C)nc4ccccc43)nc(N)c2F)cc1 [Cpd 200, 5-fluoro-N-(4-methoxyphenyl)-2-(2-methyl-1H-benzimidazol-1-yl)pyrimidine-4,6-diamine] | 1 to 10 nM |
| Cc1cc2nc(C)n(-c3nc(N)cc(Nc4ccc(C(F)(F)F)cc4)n3)c2cc1C [Cpd 79, N-[4-(trifluoromethyl)phenyl]-2-(2,5,6-trimethyl-1H-benzimidazol-1-yl)pyrimidine-4,6-diamine] | 100 to 3000 nM |
| Cc1nc2ccccc2n1-c1nc(N)cc(Nc2ccc(OC(F)F)cc2)n1 [Cpd 234, N-[4-(difluoromethoxy)phenyl]-2-(2-methyl-1H-benzimidazol-1-yl)pyrimidine-4,6-diamine] | 10 to 100 nM |
| Cc1nc2ccc(F)cc2n1-c1nc(N)c(F)c(Nc2ccc(C#N)cc2)n1 [Cpd 192, 4-{[6-amino-5-fluoro-2-(6-fluoro-2-methyl-1H-benzimidazol-1-yl)pyrimidin-4-yl]amino}benzonitrile] | 100 to 3000 nM |
| Cc1nc2ccc(F)cn2c1-c1nc(N)cc(Nc2ccc(C(F)(F)F)cc2)n1 [Cpd 68, 2-(6-fluoro-2-methylimidazo[1,2-a]pyridin-3-yl)-N-[4-(trifluoromethyl)phenyl]pyrimidine-4,6-diamine] | 10 to 100 nM |
| COc1ccc(Nc2ccnc(-c3c(C(F)(F)F)nc4ccccn34)n2)cn1 [Cpd 30, N-(6-methoxypyridin-3-yl)-2-[2-(trifluoromethyl)imidazo[1,2-a]pyridin-3-yl]pyrimidin-4-amine] | 100 to 3000 nM |
| COc1ccc(Nc2ccnc(-c3c(C(F)(F)F)nc4ccc(OC)cn34)n2)cc1 [Cpd 50, N-(4-methoxyphenyl)-2-[6-methoxy-2-(trifluoromethyl)imidazo[1,2-a]pyridin-3-yl]pyrimidin-4-amine] | 10 to 100 nM |
| Nc1nc(-n2c(C3CC3)nc3ccccc32)nc(Nc2ccc(Cl)c(F)c2)c1F [Cpd 280, N-(4-chloro-3-fluorophenyl)-2-(2-cyclopropyl-1H-benzimidazol-1-yl)-5-fluoropyrimidine-4,6-diamine] | 10 to 100 nM |
| Cc1ccc(Nc2nc(-n3c(C)nc4cc([N+](=O)[O-])ccc43)nc(N)c2F)cc1 [Cpd 254, 5-fluoro-2-(2-methyl-5-nitro-1H-benzimidazol-1-yl)-N-(4-methylphenyl)pyrimidine-4,6-diamine] | 10 to 100 nM |
| Nc1cc(Nc2ccc(C(F)(F)F)cc2)nc(-c2c(CO)nc3ccc(F)cn23)n1 [Cpd 84, [3-(4-amino-6-{[4-(trifluoromethyl)phenyl]amino}pyrimidin-2-yl)-6-fluoroimidazo[1,2-a]pyridin-2-yl]methanol] | 100 to 3000 nM |
| Cc1nc2ccc(F)cc2n1-c1nc(N)c(F)c(Nc2ccc(OC(F)F)c(F)c2)n1 [Cpd 111, N-[4-(difluoromethoxy)-3-fluorophenyl]-5-fluoro-2-(6-fluoro-2-methyl-1H-benzimidazol-1-yl)pyrimidine-4,6-diamine] | 10 to 100 nM |
| Cc1nc2cc(C#N)ccc2n1-c1nc(N)c(F)c(Nc2ccc(OC(F)F)cc2)n1 [Cpd 226, 1-(4-amino-6-{[4-(difluoromethoxy)phenyl]amino}-5-fluoropyrimidin-2-yl)-2-methyl-1H-benzimidazole-5-carbonitrile] | 100 to 3000 nM |
| Cc1nc2ccc(C(F)(F)F)cn2c1-c1nccc(Nc2ccc(Br)cc2)n1 [Cpd 19, N-(4-bromophenyl)-2-[2-methyl-6-(trifluoromethyl)imidazo[1,2-a]pyridin-3-yl]pyrimidin-4-amine] | 100 to 3000 nM |
| FC(F)Oc1ccc(Nc2ccnc(-c3c(C(F)(F)F)nc4ccc(Cl)cn34)n2)cc1 [Cpd 16, 2-[6-chloro-2-(trifluoromethyl)imidazo[1,2-a]pyridin-3-yl]-N-[4-(difluoromethoxy)phenyl]pyrimidin-4-amine] | 10 to 100 nM |
| Cc1nc2cc(Cl)ccc2n1-c1nc(N)c(F)c(Nc2ccc(C(F)(F)F)cc2)n1 [Cpd 158, 2-(5-chloro-2-methyl-1H-benzimidazol-1-yl)-5-fluoro-N-[4-(trifluoromethyl)phenyl]pyrimidine-4,6-diamine] | 100 to 3000 nM |
| COc1ccc(Nc2nc(-n3c(C)nc4ccc(N)cc43)nc(N)c2F)cc1 [Cpd 256, 2-(6-amino-2-methyl-1H-benzimidazol-1-yl)-5-fluoro-N-(4-methoxyphenyl)pyrimidine-4,6-diamine] | 10 to 100 nM |
| COc1ccc2nc(C)n(-c3nc(N)c(F)c(Nc4ccc(OC(F)(F)F)cc4)n3)c2c1 [Cpd 246, 5-fluoro-2-(6-methoxy-2-methyl-1H-benzimidazol-1-yl)-N-[4-(trifluoromethoxy)phenyl]pyrimidine-4,6-diamine] | 10 to 100 nM |

The remaining lines, values ahead:

| EC50 | SMILES |
| --- | --- |
| 100 to 3000 nM | Cc1nc2cc(Cl)ccc2n1-c1nc(N)cc(Nc2ccc(C(F)(F)F)c(F)c2)n1 [Cpd 98, 2-(5-chloro-2-methyl-1H-benzimidazol-1-yl)-N-[3-fluoro-4-(trifluoromethyl)phenyl]pyrimidine-4,6-diamine] |
| 100 to 3000 nM | COc1ccc2nc(C(F)(F)F)c(-c3nccc(Nc4ccc(OC(F)(F)F)cc4)n3)n2c1 [Cpd 49, 2-[6-methoxy-2-(trifluoromethyl)imidazo[1,2-a]pyridin-3-yl]-N-[4-(trifluoromethoxy)phenyl]pyrimidin-4-amine] |
| 1 to 10 nM | CCc1nc2ccccc2n1-c1nc(N)c(F)c(Nc2ccc(C)cc2)n1 [Cpd 270, 2-(2-ethyl-1H-benzimidazol-1-yl)-5-fluoro-N-(4-methylphenyl)pyrimidine-4,6-diamine] |
| 100 to 3000 nM | Cc1nc2cc(F)c(F)cc2n1-c1nc(N)c(F)c(Nc2ccc(C(F)(F)F)cc2)n1 [Cpd 125, 2-(5,6-difluoro-2-methyl-1H-benzimidazol-1-yl)-5-fluoro-N-[4-(trifluoromethyl)phenyl]pyrimidine-4,6-diamine] |
| 100 to 3000 nM | Cc1nc2ccc(Cl)cc2n1-c1nc(N)cc(Nc2ccc(C(F)(F)F)c(F)c2)n1 [Cpd 96, 2-(6-chloro-2-methyl-1H-benzimidazol-1-yl)-N-[3-fluoro-4-(trifluoromethyl)phenyl]pyrimidine-4,6-diamine] |
| 10 to 100 nM | CN(C)c1ccc(Nc2ccnc(-c3c(C(F)(F)F)nc4ccccn34)n2)cn1 [Cpd 31, N^2,N^2-dimethyl-N^5-{2-[2-(trifluoromethyl)imidazo[1,2-a]pyridin-3-yl]pyrimidin-4-yl]pyridine-2,5-diamine] |
| 10 to 100 nM | Cc1nc2ncc(F)cc2n1-c1nc(N)cc(Nc2ccc(C(F)(F)F)cc2)n1 [Cpd 94, 2-(6-fluoro-2-methyl-1H-imidazo[4,5-b]pyridin-1-yl)-N-[4-(trifluoromethyl)phenyl]pyrimidine-4,6-diamine] |
| 100 to 3000 nM | FC(F)(F)c1nc2ccccn2c1-c1nccc(Nc2ccc(Cl)cc2)n1 [Cpd 8, N-(4-chlorophenyl)-2-[2-(trifluoromethyl)imidazo[1,2-a]pyridin-3-yl]pyrimidin-4-amine] |
| 10 to 100 nM | CCc1nc2c(F)cc(F)cc2n1-c1nc(N)c(F)c(Nc2ccc(OC(F)F)c(F)c2)n1 [Cpd 130, N-[4-(difluoromethoxy)-3-fluorophenyl]-2-(2-ethyl-4,6-difluoro-1H-benzimidazol-1-yl)-5-fluoropyrimidine-4,6-diamine] |
| 10 to 100 nM | COc1ccc(Nc2ccnc(-c3c(C(F)(F)F)nc4ccc(Br)cn34)n2)cc1 [Cpd 33, 2-[6-bromo-2-(trifluoromethyl)imidazo[1,2-a]pyridin-3-yl]-N-(4-methoxyphenyl)pyrimidin-4-amine] |
| 10 to 100 nM | Cc1ccc(Nc2nc(-n3c(C)nc4c(F)cc(F)cc43)nc(N)c2F)cc1 [Cpd 241, 2-(4,6-difluoro-2-methyl-1H-benzimidazol-1-yl)-5-fluoro-N-(4-methylphenyl)pyrimidine-4,6-diamine] |
| 1 to 10 nM | COc1ccc(Nc2nc(-n3c(C)nc4c(F)cc(F)cc43)nc(N)c2F)cc1 [Cpd 242, 2-(4,6-difluoro-2-methyl-1H-benzimidazol-1-yl)-5-fluoro-N-(4-methoxyphenyl)pyrimidine-4,6-diamine] |
| 10 to 100 nM | Nc1nc(-n2c(C3CC3)nc3ccccc32)nc(Nc2ccc(Cl)cc2)c1F [Cpd 279, N-(4-chlorophenyl)-2-(2-cyclopropyl-1H-benzimidazol-1-yl)-5-fluoropyrimidine-4,6-diamine] |
| 10 to 100 nM | Cc1ccc2nc(C)n(-c3nc(N)cc(Nc4ccc(C(F)(F)F)cc4)n3)c2c1 [Cpd 86, 2-(2,6-dimethyl-1H-benzimidazol-1-yl)-N-[4-(trifluoromethyl)phenyl]pyrimidine-4,6-diamine] |
| 10 to 100 nM | Cc1nc2ccc(F)cc2n1-c1nc(N)cc(Nc2ccc(C(F)(F)F)cc2)n1 [Cpd 71, 2-(6-fluoro-2-methyl-1H-benzimidazol-1-yl)-N-[4-(trifluoromethyl)phenyl]pyrimidine-4,6-diamine] |
| 10 to 100 nM | Cc1nc2ccccc2n1-c1nc(N)cc(Nc2ccc(Cl)cc2)n1 [Cpd 209, N-(4-chlorophenyl)-2-(2-methyl-1H-benzimidazol-1-yl)pyrimidine-4,6-diamine] |
